{"source": "patent US20220233624A9", "about": "“ANTI-CANCER AND ANTI-PROLIFERATIVE COMPOSITIONS, AND METHODS FOR THEIR USE IN TREATING CANCER” (Natreon, Inc., priority 2020, published 2022)", "key": {"[1]": {"tested_on": "AML (Acute myeloid leukemia) PDCs, M4 subtype (SB 33866)", "test": "Anti-proliferation assay on AML PDCs", "type": "cell-based, human", "settings": "for Inhibitory Concentration IC75 / Inhibitory Concentration IC25 / IC50: AML cells (M4); for Inhibitory Concentration IC25: calculated using IC50 and hill slope; for IC50: read-out: Inhibitory Concentration IC50; for inhibition at 10 µM: assay drug control @ 10 uM", "procedure": "Anti-proliferation assays were performed on 6 types of primary patient-derived cancer cells (PDCs) from 6 different human donors, as described in Table 1:\nTests were performed in 384-well plates (24×16), using 1250 to 10,000 cells/well depending on the size and proliferation rate of different PDCs, in 30 ul of culture media (DMEM/F12 with serum and growth factors), with control wells set aside on each plate for media alone (4 wells), untreated PDCs (4 wells), and for PDCs treated with 10 ul of a known anti-cancer drug as a control. […] The outermost rows/columns of the plates were filled with PBS (pH 7.4) to avoid an edge-effect and were considered as blanks.\nStandardized aqueous extracts identified in Table 2 were prepared in main stock solutions by dissolving 1 mg of extract in 1 ml PBS (phosphate-buffered saline, pH 7.4).\nAnti-Proliferation Assay Protocol: 30 ul of cells were plated at the density of 1250 to 10,000 cells/well. The plate was incubated in a CO2 incubator for 0/N incubation for 24 hours. […] Final assay concentrations of made from stock solutions of standardized aqueous extracts identified in Table 2 were 100 ug/ml, 30 ug/ml, and 10 ug/ml. Since 10 ul extract was added to 30 ul of cell suspension, it diluted 4 times, so to maintain the final assay concentrations, 4× concentrated extract solutions (400 ug/ml, 120 ug/ml, and 40 ug/mo) were prepared from main stock (1 mg/ml) and added to the plate. In all experiments, 10 ul of 4 times concentrated stock (4×) was added to wells containing 30 ul of cell suspension to achieve final assay concentrations at 1X.\nOnce extracts were added to incubated cells and mixed gently, the plate was given a brief spin and incubated in the CO2 incubator for 72 hours. The plate was removed from the incubator and 10 ul of detection reagent (CellTiterGlo®; Promega Corporation, Wisconsin, USA) added to each well of the 384 well plate. The plate was incubated (10 min) and luminescence counts measured, with luminescence produced proportional to the number of viable (living, metabolically active) cells for each assay. The assay described above is a two-dimensional (2D) assay.\nIn this Example, AML drugs were used as disease specific controls.\nAs discussed above in Example I, 6 extracts (Ayuflex®, Capros®, Phyto-BGS®, PrimaVie®, Sensoril®, and Ayuric®) were tested on AML PDC-SB cells (33866, M-4 type, subject) at 3 concentrations: 100 ug/ml, 30 ug/ml, and 10 ug/ml."}, "AML cell line HL60": {"tested_on": "AML cell line HL60", "test": "Anti-proliferation assay on HL60 AML cells", "type": "cell-based", "settings": "for IC25 / IC75: potential dosing for further experiments", "procedure": "2500 cells were plated per well in 384 well plates. […] CellTiter Glo was used as a detection reagent. Extracts were incubated with the AML HL60 cells for 72 hours."}, "[2]": {"tested_on": "Glioma PDCs (Glioblastoma Grade IV)", "test": "Anti-proliferation assay (CellTiterGlo, 72 h) on glioma PDCs", "type": "cell-based, human", "procedure": "(§1) The outermost rows/columns of the plates were filled with PBS (pH 7.4) to avoid an edge-effect and were considered as blanks. Standardized aqueous extracts identified in Table 2 were prepared in main stock solutions by dissolving 1 mg of extract in 1 ml PBS (phosphate-buffered saline, pH 7.4). […] The plate was incubated in a CO2 incubator for 0/N incubation for 24 hours. […] Once extracts were added to incubated cells and mixed gently, the plate was given a brief spin and incubated in the CO2 incubator for 72 hours. The plate was removed from the incubator and 10 ul of detection reagent (CellTiterGlo®; Promega Corporation, Wisconsin, USA) added to each well of the 384 well plate. […] The assay described above is a two-dimensional (2D) assay."}, "[3]": {"tested_on": "Breast Cancer PDCs, ER/PR+ Her2 equivocal (HR+)", "test": "Anti-proliferation assay on breast cancer HR+ PDCs", "type": "cell-based, human", "settings": "drug alone @ 10 uM; for inhibition at 10 µM: Homo sapiens", "procedure": "as §1"}, "[4]": {"tested_on": "Breast Cancer PDCs, ER/PR− Her2+ (Her2+)", "test": "Anti-proliferation assay on breast cancer Her2+ PDCs", "type": "cell-based, human", "settings": "drug alone @ 10 uM; for inhibition at 10 µM: Homo sapiens", "procedure": "as §1"}, "[5]": {"tested_on": "Breast Cancer PDCs, Triple negative (TN), SB 36344", "test": "Anti-proliferation assay on breast cancer TN PDCs", "type": "cell-based, human", "settings": "drug alone @ 10 uM; for inhibition at 10 µM: Homo sapiens", "procedure": "as §1"}, "[6]": {"tested_on": "Glioma SB 32833 Glioblastoma Grade IV patient derived cells", "test": "Anti-proliferation assay on glioma PDCs SB 32833", "type": "cell-based", "settings": "Homo sapiens; for inhibition at 10 µM: drug @ 10 uM; for inhibition at 100 µM: Temozolomide @ 100 uM", "procedure": "The anti-cancer activity of AyuFlex®, Capros®, and Ayuric® was further tested on two other glioma PDCs taken from 2-3 different subjects (SB 6129, SB 32833 (person)). […] Also, the anti-cancer activity of AyuFlex®, Capros®, and Ayuric® was further tested on existing glioblastoma cell line U87 MG, to allow comparisons with other compositions known in the art. AyuFlex®, Capros®, and/or Ayuric® were incubated with the new PDC lines and the U87 MG cell line for 72 hours, as described in Example I above.\nTable 68 relates to FIG. 31, a graph showing the efficacy of AyuFlex®, Capros®, and/or Ayuric® on Glioma SB 32833 Glioblastoma Grade IV patient derived cells, in a combination study."}, "[7]": {"settings": "read-out: % Inhibition, single replicates"}}, "note": "Values joined by “and” are separate entries in the source; they are usually repeats but may differ in a detail not shown here. Equal entries are not always repeated. Where two headings read alike, the source gives them in different places."}
{"molecule": "Nc1ccn([C@@H]2O[C@H](CO)[C@@H](O)[C@@H]2O)c(=O)n1", "note": "[Cytarabine, cytarabine]", "values": [{"measurement": "Inhibitory Concentration IC75", "setting": "[1]", "value": 0.47, "unit": "µM"}, {"measurement": "Inhibitory Concentration IC25", "setting": "[1]", "value": 0.023, "unit": "µM"}, {"measurement": "inhibition at 3 µM", "setting": "[1]; Homo sapiens, drug alone 3 uM, read-out: inhibition of AML proliferation", "value": 99, "unit": "%"}, {"measurement": "inhibition at 3 µM", "setting": "[1]; Homo sapiens, drug alone @ 3 uM, read-out: % Inhibition Avg", "value": 99, "unit": "%"}, {"measurement": "inhibition at 3 µM", "setting": "[1]; Homo sapiens, drug alone @ 3 uM, read-out: % Inhibition n1", "value": 99, "unit": "%"}, {"measurement": "inhibition at 3 µM", "setting": "[1]; Homo sapiens, drug alone @ 3 uM, read-out: % Inhibition n2", "value": 99, "unit": "%"}, {"measurement": "inhibition at 3 µM", "setting": "[1]; Homo sapiens, drug alone @ 3 uM, read-out: % Inhibition n3", "value": 99, "unit": "%"}, {"measurement": "IC50", "setting": "[1]; Homo sapiens", "value": 0.104, "unit": "µM"}, {"measurement": "IC25", "setting": "AML cell line HL60; HL60 AML cells", "value": 0.298, "unit": "µM"}, {"measurement": "IC75", "setting": "AML cell line HL60; HL60 AML cells", "value": 1.08, "unit": "µM"}, {"measurement": "inhibition at 3 µM", "setting": "AML cell line HL60; Homo sapiens, HL-60", "value": "≥ 90", "unit": "%"}, {"measurement": "IC50", "setting": "AML cell line HL60; Homo sapiens, HL-60, dose-response curve, FIG. 35", "value": 0.567, "unit": "µM"}]}
{"molecule": "CS(=O)(=O)N1CCN(Cc2cc3nc(-c4cccc5[nH]ncc45)nc(N4CCOCC4)c3s2)CC1", "note": "[GDC-0941, pictilisib]", "values": [{"measurement": "inhibition at 10 µM", "setting": "[2]; Homo sapiens, drug alone @ 10 uM, read-out: % Inhibition Avg", "value": 81, "unit": "%"}, {"measurement": "inhibition at 10 µM", "setting": "[2]; Homo sapiens, drug alone @ 10 uM, read-out: % Inhibition, single replicates", "value": 83, "unit": "%"}, {"measurement": "% Inhibition, single replicates", "setting": "[2]; drug alone @ 10 uM, 10 µM", "value": 79, "unit": "%"}, {"measurement": "inhibition at 10 µM", "setting": "[3]; read-out: % Inhibition Avg", "value": 68, "unit": "%"}, {"measurement": "inhibition at 10 µM", "setting": "[3]; [7]", "value": 70, "unit": "%"}, {"measurement": "% Inhibition, single replicates", "setting": "[3]; 10 µM", "value": 67, "unit": "%"}, {"measurement": "inhibition at 10 µM", "setting": "[4]; read-out: % Inhibition Avg", "value": 70, "unit": "%"}, {"measurement": "inhibition at 10 µM", "setting": "[4]; [7]", "value": 71, "unit": "%"}, {"measurement": "% Inhibition, single replicates", "setting": "[4]; 10 µM", "value": 69, "unit": "%"}, {"measurement": "inhibition at 10 µM", "setting": "[5]; read-out: % Inhibition Avg", "value": 83, "unit": "%"}, {"measurement": "inhibition at 10 µM", "setting": "[5]; [7]", "value": 84, "unit": "%"}, {"measurement": "% Inhibition, single replicates", "setting": "[5]; 10 µM", "value": 82, "unit": "%"}, {"measurement": "inhibition at 10 µM", "setting": "[1]; Homo sapiens, read-out: % Inhibition Avg", "value": 59, "unit": "%"}, {"measurement": "inhibition at 10 µM", "setting": "[1]; Homo sapiens, read-out: % Inhibition n1", "value": 56, "unit": "%"}, {"measurement": "inhibition at 10 µM", "setting": "[1]; Homo sapiens, read-out: % Inhibition n2", "value": 63, "unit": "%"}, {"measurement": "inhibition at 10 µM", "setting": "[6]; read-out: % Inhibition Avg", "value": 100, "unit": "%"}, {"measurement": "inhibition at 10 µM", "setting": "[6]; read-out: % Inhibition n1", "value": 100, "unit": "%"}, {"measurement": "inhibition at 10 µM", "setting": "[6]; read-out: % Inhibition n2", "value": 100, "unit": "%"}, {"measurement": "inhibition at 10 µM", "setting": "[6]; read-out: % Inhibition n3", "value": 100, "unit": "%"}]}
{"molecule": "Cn1nnc2c(C(N)=O)ncn2c1=O", "note": "[Temozolomide, temozolomide]", "values": [{"measurement": "inhibition at 30 µM", "setting": "[2]; Homo sapiens, Temozolomide alone @ 30 uM", "value": 24, "unit": "%"}, {"measurement": "inhibition at 100 µM", "setting": "[2]; Homo sapiens, Temozolomide alone @ 100 uM, read-out: % Inhibition Avg", "value": 32, "unit": "%"}, {"measurement": "inhibition at 100 µM", "setting": "[2]; Homo sapiens, Temozolomide alone @ 100 uM, read-out: % Inhibition, single replicates", "value": 41, "unit": "%"}, {"measurement": "inhibition at 300 µM", "setting": "[2]; Homo sapiens, Temozolomide alone @ 300 uM, read-out: % Inhibition Avg", "value": 19, "unit": "%"}, {"measurement": "inhibition at 300 µM", "setting": "[2]; Homo sapiens, Temozolomide alone @ 300 uM, read-out: % Inhibition, single replicates", "value": 28, "unit": "%"}, {"measurement": "% Inhibition, single replicates", "setting": "[2]; Temozolomide alone @ 30 uM, 30 µM", "value": "16% and 15%"}, {"measurement": "% Inhibition, single replicates", "setting": "[2]; Temozolomide alone @ 100 uM, 100 µM", "value": "27% and 29%"}, {"measurement": "% Inhibition, single replicates", "setting": "[2]; Temozolomide alone @ 300 uM, 300 µM", "value": "14% and 15%"}, {"measurement": "inhibition at 100 µM", "setting": "[6]; read-out: % Inhibition Avg", "value": 27, "unit": "%"}, {"measurement": "inhibition at 100 µM", "setting": "[6]; read-out: % Inhibition n1", "value": 41, "unit": "%"}, {"measurement": "inhibition at 100 µM", "setting": "[6]; read-out: % Inhibition n2", "value": 21, "unit": "%"}, {"measurement": "inhibition at 100 µM", "setting": "[6]; read-out: % Inhibition n3", "value": 18, "unit": "%"}]}
{"molecule": "arsenic trioxide", "values": [{"measurement": "Inhibitory Concentration IC75", "setting": "[1]", "value": 6.45, "unit": "µM"}, {"measurement": "Inhibitory Concentration IC25", "setting": "[1]", "value": 1.38, "unit": "µM"}, {"measurement": "IC50", "setting": "[1]", "value": 2.99, "unit": "µM"}, {"measurement": "inhibition of AML proliferation", "setting": "[1]; drug alone 3 uM", "value": 97, "unit": "%"}, {"measurement": "% Inhibition Avg", "setting": "[1]; drug alone @ 3 uM", "value": 97, "unit": "%"}, {"measurement": "% Inhibition n1", "setting": "[1]; drug alone @ 3 uM", "value": 97, "unit": "%"}, {"measurement": "% Inhibition n2", "setting": "[1]; drug alone @ 3 uM", "value": 97, "unit": "%"}, {"measurement": "% Inhibition n3", "setting": "[1]; drug alone @ 3 uM", "value": 97, "unit": "%"}, {"measurement": "IC50", "setting": "AML cell line HL60; HL60 AML cells", "value": 2.43, "unit": "µM"}, {"measurement": "IC25", "setting": "AML cell line HL60; HL60 AML cells", "value": 1.72, "unit": "µM"}, {"measurement": "IC75", "setting": "AML cell line HL60; HL60 AML cells", "value": 3.01, "unit": "µM"}, {"measurement": "IC50", "setting": "AML cell line HL60; dose-response curve, FIG. 35", "value": 2.3, "unit": "µM"}]}
